Results on four compounds are retold here after patent publication US20240050477A1, “LIPID NANOPARTICLE” (NATIONAL UNIVERSITY CORPORATION HOKKAIDO UNIVERSITY, priority 2021, published 2024).

Data set [1] can be described thus: pKa of lipid nanoparticle measured using TNS. Type of data set: physicochemical. The settings on record: apparent pKa of the pH-sensitive cationic lipid constituting a lipid nanoparticle. The method, then: The pKa of lipid nanoparticles was measured using […] (TNS). TNS (final concentration: 0.75 mM) and the lipid nanoparticles (final concentration: 30 mM) were first mixed in a buffer solution adjusted to each pH. The fluorescence intensity of the prepared mixed solution was measured using a microplate reader.

For data set [2], the system named is GAPDH mRNA in NK-92 cells. Nature of the data set: GAPDH gene knockdown activity of siGAPDH-encapsulated lipid nanoparticle in NK-92 cells (RT-qPCR). The class given is cell-based, human. The settings on record: siGAPDH-encapsulated LNP, siRNA 10-90 nM, 24 hours after transfection. Here is the method: A NK cell line (NK-92 or NK-92MI) was transfected with each lipid nanoparticle. The knockdown activity of the siGAPDH- or siSMAD3-encapsulated lipid nanoparticle was examined by RT-qPCR using RNA extracted from the cells 24 hours later as a template.
First, the NK cell line was recovered into a 50 mL tube and centrifuged (130×g, 4° C., 5 min). The supernatant was removed, and the cells were suspended in 10 mL of a culture medium (Opti-MEM), counted, and then resuspended into 4×10^6 cells/mL in a culture medium. […]
The cells were recovered into a 1.5 mL tube from each well and centrifuged (800×g, 4° C., 3 min). […] Then, absorbance was measured using micro-volume spectrophotometer “Nano drop” (manufactured by Thermo Fisher Scientific Inc.) to measure the concentration and purity of the RNA.
Reverse-transcription reaction was performed with the recovered RNA as a template using an oligo dT primer and a random primer (6 mars) in a kit for reverse-transcription reaction (“PrimeScript RT reagent kit”, manufactured by Takara Bio Inc.). Then, a GAPDH or SMAD3 mRNA level was measured by real-time PCR with the obtained cDNA as a template using relative quantification based on the ΔΔCt method and β-actin (ACTB) as an endogenous gene. […]
(Quantitative PCR measures a nucleic acid by following its amplification.)

The term pKa denotes the pH at which an ionisable group is half protonated.

For the compound `CCCCCCCC/C=C\CCCCCCCC(=O)OCCCCCCC(O)(CCCCCCOC(=O)CCCCCCC/C=C\CCCCCCCC)CCCCN(C)C` [CL1H6], the pKa in data set [1] stood at 8.2. The “GAPDH gene knockdown activity ([GAPDH mRNA level]/[ACTB mRNA level])” value in data set [2] is listed as “high gene knockdown activity at a small content ratio”.

As for `CCCCCCCC/C=C\CCCCCCCC(=O)OCCCCCCC(O)(CCCCCCOC(=O)CCCCCCC/C=C\CCCCCCCC)CCCCN(CCC)CCC` [CL4H6], in data set [1], the pKa came to 6.35.

With `CCCCCCCC/C=C\CCCCCCCC(=O)OCCCCCCC(O)(CCCCCCOC(=O)CCCCCCC/C=C\CCCCCCCC)CCCCOC(=O)C1CCN(C)CC1` [CL15H6], the pKa in data set [1] worked out at 7.3.

On to `CCCCC/C=C\C/C=C\CCCCCCCCC(O)(CCCCCCCC/C=C\C/C=C\CCCCC)CCCCN(C)C` [YSK12-C4], for which the pKa in data set [1] is 8.2.
